In article PMC9399411, “Identification of solamargine as a cisplatin sensitizer through phenotypical screening in cisplatin-resistant NSCLC organoids” (Frontiers in Pharmacology, 2022):

Tests used:
SMO (smoothened) [1] = target: T1, SMO (smoothened) (Homo sapiens, UniProt Q99835); assay: BODIPY-cyclopamine competitive displacement on fixed U2OS-Smo cells (fluorescence imaging), […] solamargine; type: cell-based
T1 construct: human Smo protein stably overexpressed in U2OS cells

SMO (smoothened) [2] = target: T1, SMO (smoothened); assay: BODIPY-cyclopamine competitive displacement on fixed U2OS-Smo cells (fluorescence imaging), […] vismodegib; type: cell-based

T1 sequence (Q99835 28-787): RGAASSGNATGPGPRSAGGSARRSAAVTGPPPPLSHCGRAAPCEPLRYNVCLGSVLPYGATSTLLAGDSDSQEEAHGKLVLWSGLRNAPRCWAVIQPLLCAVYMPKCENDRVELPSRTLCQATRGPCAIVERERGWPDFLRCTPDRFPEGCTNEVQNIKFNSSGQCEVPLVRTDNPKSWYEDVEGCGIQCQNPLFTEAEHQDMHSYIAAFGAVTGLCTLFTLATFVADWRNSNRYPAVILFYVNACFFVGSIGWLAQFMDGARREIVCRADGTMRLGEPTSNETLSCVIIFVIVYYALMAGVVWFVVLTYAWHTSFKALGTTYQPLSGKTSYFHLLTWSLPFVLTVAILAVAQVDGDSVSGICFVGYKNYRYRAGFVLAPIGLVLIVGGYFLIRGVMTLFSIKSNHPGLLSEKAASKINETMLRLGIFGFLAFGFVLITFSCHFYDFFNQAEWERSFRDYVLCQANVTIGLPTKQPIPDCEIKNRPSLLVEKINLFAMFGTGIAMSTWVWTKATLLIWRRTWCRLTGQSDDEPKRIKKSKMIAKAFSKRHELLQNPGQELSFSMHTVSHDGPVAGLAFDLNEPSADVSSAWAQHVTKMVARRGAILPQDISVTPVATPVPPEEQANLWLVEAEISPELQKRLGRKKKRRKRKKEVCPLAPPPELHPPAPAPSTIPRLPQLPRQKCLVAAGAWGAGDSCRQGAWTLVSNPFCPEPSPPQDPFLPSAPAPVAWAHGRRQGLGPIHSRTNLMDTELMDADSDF

C[C@@H]1CC[C@@]2(NC1)O[C@H]1C[C@H]3[C@@H]4CC=C5C[C@@H](O[C@@H]6O[C@H](CO)[C@@H](O[C@@H]7O[C@@H](C)[C@H](O)[C@@H](O)[C@H]7O)[C@H](O)[C@H]6O[C@@H]6O[C@@H](C)[C@H](O)[C@@H](O)[C@H]6O)CC[C@]5(C)[C@H]4CC[C@]3(C)[C@H]1[C@@H]2C [Solamargine]
BODIPY-cyclopamine competitive displacement on fixed U2OS-Smo cells (fluorescenc) (SMO (smoothened) [1]): fluorescent signaling of BODIPY-cyclopamine wasalso suppressed by Solamargine (Figure 4C), suggesting the inhibitory binding of Solamargine to SMO

CS(=O)(=O)c1ccc(C(=O)Nc2ccc(Cl)c(-c3ccccn3)c2)c(Cl)c1 [vismodegib]
BODIPY-cyclopamine competitive displacement on fixed U2OS-Smo cells (fluorescenc) (SMO (smoothened) [2]): vismodegib can directly bind to SMO and competitively remove BODIPY-cyclopamine from SMO
